Laboratory results as given in ChEMBL document CHEMBL1909046, “DrugMatrix in vitro pharmacology data”.

Legend:
[1] = target: Tyrosine-protein kinase Fyn (Homo sapiens, UniProt P06241); assay: biochemical; type: cell-based, Insect cells;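 note: enzymatic inhibition of Fyn kinase activity measured with Poly(Glu:Tyr) as the phosphorylation substrate; in other assays of this panel Not Active means under 50% inhibition at 10 µM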
[2] = target: Tyrosine-protein kinase Lck (Homo sapiens, UniProt P06239); assay: DRUGMATRIX: Protein Tyrosine Kinase, LCK enzyme inhibition (substrate: Poly(Glu:Tyr)); type: cell-based, Insect cells; conditions: insect cells, Not Active = under 50% inhibition at 10 µM
[3] = DRUGMATRIX: GABAA, Muscimol, Central radioligand binding (ligand: [3H] Muscimol); type: cell membranes, Rattus norvegicus, Wistar, Brain, Membrane; conditions: Not Active = under 50% inhibition at 10 µM
B2 bradykinin receptor = target: T1, B2 bradykinin receptor (Homo sapiens, UniProt P30411); type: cell membranes, Membrane; conditions: chem-1; note: in other assays of this panel Not Active means under 50% inhibition at 10 µM
T1 sequence (P30411 whole entry): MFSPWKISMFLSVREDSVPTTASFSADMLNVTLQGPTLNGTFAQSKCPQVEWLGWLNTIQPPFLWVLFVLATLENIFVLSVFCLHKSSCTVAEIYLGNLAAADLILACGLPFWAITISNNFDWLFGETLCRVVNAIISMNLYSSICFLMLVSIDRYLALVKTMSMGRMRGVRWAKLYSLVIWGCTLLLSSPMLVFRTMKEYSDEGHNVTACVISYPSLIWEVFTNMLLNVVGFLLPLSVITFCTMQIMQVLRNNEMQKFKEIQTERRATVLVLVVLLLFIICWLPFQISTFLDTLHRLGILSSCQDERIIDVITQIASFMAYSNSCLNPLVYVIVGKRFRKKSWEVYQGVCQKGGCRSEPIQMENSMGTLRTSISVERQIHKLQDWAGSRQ

Nitric oxide synthase 1 = Nitric oxide synthase 1 (Rattus norvegicus, UniProt P29476); type: tissue-based, Cerebellum; note: in other assays of this panel Not Active means under 50% inhibition at 10 µM
Glucocorticoid receptor = target: T2, Glucocorticoid receptor (Homo sapiens, UniProt P04150); conditions: hela s3; note: in other assays of this panel Not Active means under 50% inhibition at 10 µM
T2 sequence (P04150 whole entry): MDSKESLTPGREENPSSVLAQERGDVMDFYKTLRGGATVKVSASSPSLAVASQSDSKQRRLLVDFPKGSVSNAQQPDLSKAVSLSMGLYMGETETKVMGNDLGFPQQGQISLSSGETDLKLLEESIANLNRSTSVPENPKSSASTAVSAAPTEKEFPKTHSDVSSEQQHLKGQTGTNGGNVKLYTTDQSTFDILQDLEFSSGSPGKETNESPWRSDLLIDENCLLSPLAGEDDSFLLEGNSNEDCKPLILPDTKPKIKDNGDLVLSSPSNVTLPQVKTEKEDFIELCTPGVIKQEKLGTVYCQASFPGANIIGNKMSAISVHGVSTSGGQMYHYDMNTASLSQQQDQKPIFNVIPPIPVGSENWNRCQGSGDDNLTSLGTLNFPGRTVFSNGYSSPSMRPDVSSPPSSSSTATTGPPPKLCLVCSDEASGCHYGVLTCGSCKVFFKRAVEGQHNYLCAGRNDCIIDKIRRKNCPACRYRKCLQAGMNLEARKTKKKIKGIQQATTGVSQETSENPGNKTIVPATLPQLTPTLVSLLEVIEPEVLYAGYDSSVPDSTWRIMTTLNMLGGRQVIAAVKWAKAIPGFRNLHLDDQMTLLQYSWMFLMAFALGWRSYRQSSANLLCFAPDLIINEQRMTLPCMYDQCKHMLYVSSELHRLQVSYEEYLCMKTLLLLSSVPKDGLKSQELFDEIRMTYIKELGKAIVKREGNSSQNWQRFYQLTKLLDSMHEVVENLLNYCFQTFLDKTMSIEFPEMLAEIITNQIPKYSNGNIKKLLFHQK

[4] = DRUGMATRIX: Phosphodiesterase PDE3 enzyme inhibition (substrate: [3H]cAMP + cAMP); type: tissue-based, Homo sapiens; conditions: platelet; Not Active = under 50% inhibition at 10 µM
[5] = target: T3, Vasoactive intestinal polypeptide receptor 1 (Homo sapiens, UniProt P32241); type: cell membranes, Membrane; conditions: ht-29; note: in other assays of this panel Not Active means under 50% inhibition at 10 µM
T3 sequence (P32241 whole entry): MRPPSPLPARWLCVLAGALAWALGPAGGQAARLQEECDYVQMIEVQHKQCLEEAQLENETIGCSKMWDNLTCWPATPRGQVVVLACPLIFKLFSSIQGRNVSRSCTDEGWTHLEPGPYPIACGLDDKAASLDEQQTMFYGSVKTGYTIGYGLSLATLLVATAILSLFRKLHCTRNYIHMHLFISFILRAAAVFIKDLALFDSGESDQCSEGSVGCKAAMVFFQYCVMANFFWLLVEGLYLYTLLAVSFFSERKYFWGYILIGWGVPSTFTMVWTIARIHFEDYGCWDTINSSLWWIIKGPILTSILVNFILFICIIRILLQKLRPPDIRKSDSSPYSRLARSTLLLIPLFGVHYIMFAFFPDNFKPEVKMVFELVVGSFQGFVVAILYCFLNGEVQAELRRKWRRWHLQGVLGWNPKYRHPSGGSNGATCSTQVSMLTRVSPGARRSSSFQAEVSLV

Chain of Tyrosine-protein kinase Fyn (P06241 whole entry): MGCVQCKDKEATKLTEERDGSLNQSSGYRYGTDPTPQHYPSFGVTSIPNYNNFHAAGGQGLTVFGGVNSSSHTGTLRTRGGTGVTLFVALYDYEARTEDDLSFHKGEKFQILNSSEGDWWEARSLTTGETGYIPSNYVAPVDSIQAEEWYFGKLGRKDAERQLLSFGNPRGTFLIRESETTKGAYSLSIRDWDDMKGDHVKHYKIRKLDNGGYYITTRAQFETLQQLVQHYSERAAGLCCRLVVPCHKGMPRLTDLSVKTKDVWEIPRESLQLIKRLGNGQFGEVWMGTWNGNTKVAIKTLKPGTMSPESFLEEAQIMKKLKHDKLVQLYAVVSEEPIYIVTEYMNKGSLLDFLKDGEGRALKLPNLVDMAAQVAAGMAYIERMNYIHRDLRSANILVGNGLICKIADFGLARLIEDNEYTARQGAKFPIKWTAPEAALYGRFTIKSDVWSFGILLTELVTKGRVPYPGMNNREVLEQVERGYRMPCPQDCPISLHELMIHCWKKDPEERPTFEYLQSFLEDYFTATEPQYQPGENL
Chain of Tyrosine-protein kinase Lck (P06239 whole entry): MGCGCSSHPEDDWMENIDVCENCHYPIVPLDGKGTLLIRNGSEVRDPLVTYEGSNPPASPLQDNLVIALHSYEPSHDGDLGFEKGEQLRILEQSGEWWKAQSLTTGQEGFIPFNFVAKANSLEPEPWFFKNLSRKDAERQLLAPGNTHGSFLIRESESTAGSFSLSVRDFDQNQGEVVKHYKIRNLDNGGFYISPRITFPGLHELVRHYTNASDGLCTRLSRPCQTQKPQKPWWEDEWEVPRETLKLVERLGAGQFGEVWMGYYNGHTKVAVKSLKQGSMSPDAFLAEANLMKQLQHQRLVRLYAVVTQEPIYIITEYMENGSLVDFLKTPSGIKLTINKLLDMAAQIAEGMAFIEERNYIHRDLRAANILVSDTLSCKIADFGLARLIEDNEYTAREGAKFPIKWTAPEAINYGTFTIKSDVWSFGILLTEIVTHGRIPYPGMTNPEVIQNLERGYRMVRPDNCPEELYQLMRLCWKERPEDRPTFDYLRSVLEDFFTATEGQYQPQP
Chain of Nitric oxide synthase 1 (P29476 whole entry): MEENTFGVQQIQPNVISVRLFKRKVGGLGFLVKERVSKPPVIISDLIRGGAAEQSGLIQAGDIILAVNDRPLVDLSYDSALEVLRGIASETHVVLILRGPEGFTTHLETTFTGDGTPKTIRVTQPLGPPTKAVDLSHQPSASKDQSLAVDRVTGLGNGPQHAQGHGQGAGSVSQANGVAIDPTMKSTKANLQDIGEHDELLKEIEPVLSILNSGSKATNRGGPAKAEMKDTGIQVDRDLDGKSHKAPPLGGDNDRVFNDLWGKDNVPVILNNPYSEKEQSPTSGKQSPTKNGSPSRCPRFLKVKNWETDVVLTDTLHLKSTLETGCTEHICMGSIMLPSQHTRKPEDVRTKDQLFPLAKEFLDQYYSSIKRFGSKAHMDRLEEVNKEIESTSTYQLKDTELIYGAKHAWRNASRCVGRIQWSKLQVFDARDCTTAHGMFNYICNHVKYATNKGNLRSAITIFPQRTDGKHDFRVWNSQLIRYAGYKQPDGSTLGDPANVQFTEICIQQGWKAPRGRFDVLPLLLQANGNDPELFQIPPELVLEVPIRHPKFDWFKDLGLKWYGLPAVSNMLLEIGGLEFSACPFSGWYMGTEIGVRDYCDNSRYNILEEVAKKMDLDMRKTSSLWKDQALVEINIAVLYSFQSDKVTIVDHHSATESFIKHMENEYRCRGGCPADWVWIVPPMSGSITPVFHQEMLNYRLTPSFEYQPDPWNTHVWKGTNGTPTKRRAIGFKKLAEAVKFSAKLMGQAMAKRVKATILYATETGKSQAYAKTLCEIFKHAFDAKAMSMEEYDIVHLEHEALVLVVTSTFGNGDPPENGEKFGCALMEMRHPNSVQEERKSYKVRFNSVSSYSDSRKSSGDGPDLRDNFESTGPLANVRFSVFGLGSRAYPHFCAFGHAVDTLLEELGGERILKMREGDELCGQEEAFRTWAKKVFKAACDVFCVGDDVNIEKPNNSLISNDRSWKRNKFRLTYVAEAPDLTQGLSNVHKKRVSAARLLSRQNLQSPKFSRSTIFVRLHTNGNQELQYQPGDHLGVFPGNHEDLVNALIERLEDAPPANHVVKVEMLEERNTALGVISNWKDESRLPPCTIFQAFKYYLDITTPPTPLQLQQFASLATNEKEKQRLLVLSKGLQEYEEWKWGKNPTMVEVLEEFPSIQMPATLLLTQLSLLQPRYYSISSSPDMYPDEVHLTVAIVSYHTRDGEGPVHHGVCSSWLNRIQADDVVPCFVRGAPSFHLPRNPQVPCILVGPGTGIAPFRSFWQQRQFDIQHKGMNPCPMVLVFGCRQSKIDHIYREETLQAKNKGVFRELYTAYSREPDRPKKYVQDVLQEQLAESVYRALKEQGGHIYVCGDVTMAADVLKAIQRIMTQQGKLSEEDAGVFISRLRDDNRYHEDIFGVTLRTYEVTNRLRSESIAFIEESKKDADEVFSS

Row | Molecule | IC50 ([1]; insect cells) | IC50 [2] | IC50 [3] | Ki [3] | IC50 (B2 bradykinin receptor) | IC50 (Nitric oxide synthase 1) | IC50 (Glucocorticoid receptor) | IC50 [4] | Ki [4] | IC50 [5] | IC50 ([1]; read-out: IC50) [nM] | IC50 ([1]; insect cells, read-out: IC50) [nM] | IC50 ([2]; read-out: IC50) [nM] | Ki (B2 bradykinin receptor) | Ki (Nitric oxide synthase 1) | Ki (Glucocorticoid receptor) | Ki [5]
1 | O=C(CCCN1CC=C(n2c(=O)[nH]c3ccccc32)CC1)c1ccc(F)cc1 [DROPERIDOL] | Not Active | Not Active | Not Active | Not Active | Not Active | Not Active | Not Active | Not Active | Not Active | Not Active |  |  |  |  |  |  | 
2 | CC(C)[C@H]1C(=O)N2CCC[C@H]2[C@]2(O)O[C@](NC(=O)[C@@H]3C=C4c5cccc6[nH]cc(c56)C[C@H]4N(C)C3)(C(C)C)C(=O)N12 [ERGOCORNINE] | Not Active | Not Active | Not Active | Not Active | Not Active | Not Active | Not Active | Not Active | Not Active | Not Active |  |  |  |  |  |  | 
3 | OC(Cn1cncn1)(Cn1cncn1)c1ccc(F)cc1F [FLUCONAZOLE] | Not Active | Not Active | Not Active | Not Active | Not Active | Not Active | Not Active | Not Active | Not Active | Not Active |  |  |  |  |  |  | 
4 | N=C(N)NCCN1CCCCCCC1 [GUANETHIDINE] | Not Active | Not Active | Not Active | Not Active | Not Active | Not Active | Not Active | Not Active | Not Active | Not Active |  |  |  |  |  |  | 
5 | O=c1[nH]c(=O)n([C@H]2C[C@H](O)[C@@H](CO)O2)cc1I [IDOXURIDINE] | Not Active | Not Active | Not Active | Not Active | Not Active | Not Active | Not Active | Not Active | Not Active | Not Active |  |  |  |  |  |  | 
6 | Nc1nc(N)nc(-c2cc(Cl)ccc2Cl)n1.O=C(O)/C=C\C(=O)O [IRSOGLADINE MALEATE] | Not Active | Not Active | Not Active | Not Active | Not Active | Not Active | Not Active | Not Active | Not Active | Not Active |  |  |  |  |  |  | 
7 | CCCCc1nc(Cl)c(CO)n1Cc1ccc(-c2ccccc2-c2nnn[nH]2)cc1 [LOSARTAN] | Not Active | Not Active | Not Active | Not Active | Not Active | Not Active | Not Active | Not Active | Not Active | Not Active |  |  |  |  |  |  | 
8 | Cc1ccccc1N1C(=O)c2cc(S(N)(=O)=O)c(Cl)cc2NC1C (centres undefined) [METOLAZONE] | Not Active | Not Active | Not Active | Not Active | Not Active | Not Active | Not Active | Not Active | Not Active | Not Active |  |  |  |  |  |  | 
9 | COCCc1ccc(OCC(O)CNC(C)C)cc1 (centres undefined) [METOPROLOL] | Not Active | Not Active | Not Active | Not Active | Not Active | Not Active | Not Active | Not Active | Not Active | Not Active |  |  |  |  |  |  | 
10 | CCn1cc(C(=O)O)c(=O)c2cc(F)c(N3CCNCC3)cc21 [NORFLOXACIN] | Not Active | Not Active | Not Active | Not Active | Not Active | Not Active | Not Active | Not Active | Not Active | Not Active |  |  |  |  |  |  | 
11 | NC1=NC(=O)C(c2ccccc2)O1 (centres undefined) [PEMOLINE] | Not Active | Not Active | Not Active | Not Active | Not Active | Not Active | Not Active | Not Active | Not Active | Not Active |  |  |  |  |  |  | 
12 | Nc1nc2c(ncn2CCC(CO)CO)c(=O)[nH]1 [PENCICLOVIR] | Not Active | Not Active | Not Active | Not Active | Not Active | Not Active | Not Active | Not Active | Not Active | Not Active |  |  |  |  |  |  | 
13 | C=C(C)C1(O)OC(=O)C=C1OC (centres undefined) [PENICILLIC ACID] | Not Active | Not Active | Not Active | Not Active | Not Active | Not Active | Not Active | Not Active | Not Active | Not Active |  |  |  |  |  |  | 
14 | CC1(C)S[C@@H]2[C@H](NC(=O)Cc3ccccc3)C(=O)N2[C@H]1C(=O)O [PENICILLIN G] | Not Active | Not Active | Not Active | Not Active | Not Active | Not Active | Not Active | Not Active | Not Active | Not Active |  |  |  |  |  |  | 
15 | CCCN1C[C@H](CSC)C[C@@H]2c3cccc4[nH]cc(c34)C[C@H]21 [PERGOLIDE] | Not Active | Not Active | Not Active | Not Active | Not Active | Not Active | Not Active | Not Active | Not Active | Not Active |  |  |  |  |  |  | 
16 | C1CCC(C(CC2CCCCN2)C2CCCCC2)CC1 (centres undefined) [PERHEXILINE] |  | Not Active | Not Active | Not Active | Not Active | Not Active | Not Active | Not Active | Not Active | Not Active | 4060 |  |  |  |  |  | 
17 | CCOc1ccc(NC(C)=O)cc1 [PHENACETIN] | Not Active | Not Active | Not Active | Not Active | Not Active | Not Active | Not Active | Not Active | Not Active | Not Active |  |  |  |  |  |  | 
18 | Cc1ccc(N(CC2=NCCN2)c2cccc(O)c2)cc1 [PHENTOLAMINE] | Not Active | Not Active | Not Active | Not Active | Not Active | Not Active | Not Active | Not Active | Not Active | Not Active |  |  |  |  |  |  | 
19 | CNNCc1ccc(C(=O)NC(C)C)cc1 [PROCARBAZINE] | Not Active | Not Active | Not Active | Not Active | Not Active | Not Active | Not Active | Not Active | Not Active | Not Active |  |  |  |  |  |  | 
20 | CC(O)CO (centres undefined) [PROPYLENE GLYCOL] | Not Active | Not Active | Not Active | Not Active | Not Active | Not Active | Not Active | Not Active | Not Active | Not Active |  |  |  |  |  |  | 
21 | LIPOPOLYSACCHARIDE E. COLI O55:B5 |  |  | Not Active | Not Active | Not Active | Not Active | Not Active | Not Active | Not Active | Not Active |  | 191 | 294 | Not Active | Not Active | Not Active | Not Active
